Results from patent US9212182B2, “Bicyclic sulfonamide compounds as sodium channel inhibitors” (AMGEN INC., priority 2013, dated 2015).
Like-named read-outs stand apart in the source and are kept apart here.

Target: Nav 1.7 (Homo sapiens (Human), UniProt Q15858)
Test: in-vitro Nav 1.7 PX (IC50)
Format: cell-based
[1] = in-vitro Nav 1.7 PX data (PatchXpress)

Chain of Nav 1.7 (Q15858 whole entry): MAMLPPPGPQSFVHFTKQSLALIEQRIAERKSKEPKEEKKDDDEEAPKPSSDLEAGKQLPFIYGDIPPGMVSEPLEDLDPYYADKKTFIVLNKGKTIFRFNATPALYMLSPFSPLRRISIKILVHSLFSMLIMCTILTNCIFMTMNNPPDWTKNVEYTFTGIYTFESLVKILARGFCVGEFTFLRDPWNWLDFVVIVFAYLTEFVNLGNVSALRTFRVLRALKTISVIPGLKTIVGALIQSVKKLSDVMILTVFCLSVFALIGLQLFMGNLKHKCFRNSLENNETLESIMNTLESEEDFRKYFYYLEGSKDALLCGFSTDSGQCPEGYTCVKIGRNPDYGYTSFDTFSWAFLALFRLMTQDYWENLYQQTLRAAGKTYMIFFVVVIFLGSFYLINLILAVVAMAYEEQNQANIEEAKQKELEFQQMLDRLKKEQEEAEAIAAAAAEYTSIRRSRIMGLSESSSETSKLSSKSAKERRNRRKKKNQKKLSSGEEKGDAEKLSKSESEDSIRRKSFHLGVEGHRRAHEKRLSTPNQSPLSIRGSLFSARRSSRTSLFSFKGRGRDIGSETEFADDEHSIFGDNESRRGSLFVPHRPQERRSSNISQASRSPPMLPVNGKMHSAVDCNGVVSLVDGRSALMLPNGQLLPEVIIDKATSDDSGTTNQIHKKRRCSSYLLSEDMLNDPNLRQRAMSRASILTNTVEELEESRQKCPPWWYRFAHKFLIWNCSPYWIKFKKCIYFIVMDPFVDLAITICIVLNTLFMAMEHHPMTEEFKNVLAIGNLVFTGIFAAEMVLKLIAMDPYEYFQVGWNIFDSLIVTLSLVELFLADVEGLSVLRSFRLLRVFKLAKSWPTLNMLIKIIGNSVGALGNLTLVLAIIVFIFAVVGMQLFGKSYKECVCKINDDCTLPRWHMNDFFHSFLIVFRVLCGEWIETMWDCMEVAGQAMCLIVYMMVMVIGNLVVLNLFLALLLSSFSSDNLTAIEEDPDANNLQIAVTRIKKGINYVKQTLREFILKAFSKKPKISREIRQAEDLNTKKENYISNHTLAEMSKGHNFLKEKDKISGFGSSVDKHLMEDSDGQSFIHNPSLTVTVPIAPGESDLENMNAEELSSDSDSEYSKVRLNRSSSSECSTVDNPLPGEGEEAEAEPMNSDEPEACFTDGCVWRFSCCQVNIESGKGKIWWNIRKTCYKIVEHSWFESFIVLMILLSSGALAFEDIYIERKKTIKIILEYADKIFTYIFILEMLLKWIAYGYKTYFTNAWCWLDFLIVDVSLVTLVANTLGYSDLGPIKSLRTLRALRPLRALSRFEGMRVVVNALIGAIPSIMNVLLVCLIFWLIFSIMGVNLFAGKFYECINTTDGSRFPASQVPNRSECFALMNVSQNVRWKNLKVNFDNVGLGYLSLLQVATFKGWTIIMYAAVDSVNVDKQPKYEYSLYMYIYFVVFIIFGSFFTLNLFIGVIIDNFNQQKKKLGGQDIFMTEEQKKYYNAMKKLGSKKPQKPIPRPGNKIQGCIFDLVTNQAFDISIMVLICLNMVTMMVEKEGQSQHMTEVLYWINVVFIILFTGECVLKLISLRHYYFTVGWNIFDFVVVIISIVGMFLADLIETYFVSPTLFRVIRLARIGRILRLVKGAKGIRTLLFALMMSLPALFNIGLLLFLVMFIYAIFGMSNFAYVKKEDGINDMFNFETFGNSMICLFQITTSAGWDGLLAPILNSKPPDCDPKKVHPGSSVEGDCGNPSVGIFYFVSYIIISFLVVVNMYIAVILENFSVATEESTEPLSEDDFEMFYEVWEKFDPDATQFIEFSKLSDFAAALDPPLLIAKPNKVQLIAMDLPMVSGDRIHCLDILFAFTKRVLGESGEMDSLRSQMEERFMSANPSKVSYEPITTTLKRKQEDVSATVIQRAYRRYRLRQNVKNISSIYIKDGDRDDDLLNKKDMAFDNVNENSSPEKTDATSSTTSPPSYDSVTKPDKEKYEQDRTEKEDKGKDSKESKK

Row | SMILES | IC50 (in-vitro Nav 1.7 PX data) [nM] | other results
1 | COc1cc(-c2cccc(C#N)c2)c(F)cc1-n1c(=O)ccc2cc(S(=O)(=O)Nc3ccon3)ccc21 (atropisomer, axis not shown; (P)) [Example 498, (P)-1-(3′-cyano-2-fluoro-5-methoxy-4-biphenylyl)-N-3-isoxazolyl-2-oxo-1,2-dihydro-6-quinolinesulfonamide] | – | IC50 (in-vitro PatchXpress (PX)): 34 nM
2 | COc1cc(F)cc(-c2ccc(-n3c(=O)ccc4cc(S(=O)(=O)Nc5ncccn5)ccc43)c(OC)c2)c1 [Example 996, 1-(3′-fluoro-3,5′-dimethoxy-4-biphenylyl)-2-oxo-N-2-pyrimidinyl-1,2-dihydro-6-quinolinesulfonamide] | 52 | –
3 | COc1nc(-c2cccc(C#N)c2)c(Cl)cc1-n1c(=O)ccc2cc(S(=O)(=O)Nc3ccon3)ccc21 [Example 1091, 1-(5-chloro-6-(3-cyanophenyl)-2-methoxy-3-pyridinyl)-N-3-isoxazolyl-2-oxo-1,2-dihydro-6-quinolinesulfonamide] | 20300 | –
4 | COc1cc(-c2cc(F)cc(Cl)c2)c(C#N)cc1-n1c(=O)ccc2cc(S(=O)(=O)Nc3ccon3)ccc21 (atropisomer, axis not shown; (P)) [Example 433, (P)-1-(3′-chloro-2-cyano-5′-fluoro-5-methoxy-4-biphenylyl)-N-3-isoxazolyl-2-oxo-1,2-dihydro-6-quinolinesulfonamide] | – | IC50: 10 nM
5 | COc1cc(-c2ccc(Cl)c(C)c2)c(F)cc1-n1c(=O)ccc2cc(S(=O)(=O)Nc3cccnn3)ccc21 (atropisomer, axis not shown; (P)) [Example 695, (P)-1-(4′-chloro-2-fluoro-5-methoxy-3′-methyl-4-biphenylyl)-2-oxo-N-3-pyridazinyl-1,2-dihydro-6-quinolinesulfonamide] | 12 | –
6 | COc1cc(-c2ccc(Cl)cc2F)c(F)cc1-n1c(=O)ccc2cc(S(=O)(=O)Nc3ccon3)ccc21 [Example 733, 1-(4′-chloro-2,2′-difluoro-5-methoxy-4-biphenylyl)-N-3-isoxazolyl-2-oxo-1,2-dihydro-6-quinolinesulfonamide] | 20 | –
7 | COc1cc(-c2cccc(OC)c2F)ccc1-n1c(=O)ccc2cc(S(=O)(=O)Nc3ccon3)ccc21 [Example 785, 1-(2′-fluoro-3,3′-dimethoxy-4-biphenylyl)-N-3-isoxazolyl-2-oxo-1,2-dihydro-6-quinolinesulfonamide] | 66 | –
8 | COc1cc(-c2cc(C)ccc2C)ccc1-n1c(=O)ccc2cc(S(=O)(=O)Nc3ccon3)ccc21 [Example 1055, N-3-isoxazolyl-1-(3-methoxy-2′,5′-dimethyl-4-biphenylyl)-2-oxo-1,2-dihydro-6-quinolinesulfonamide] | – | IC50 [1]: 16 nM
9 | COc1cc(-c2cccc(C)c2Cl)ccc1-n1c(=O)ccc2cc(S(=O)(=O)Nc3ccon3)ccc21 [Example 1059, 1-(2′-chloro-3-methoxy-3′-methyl-4-biphenylyl)-N-3-isoxazolyl-2-oxo-1,2-dihydro-6-quinolinesulfonamide] | – | IC50 [1]: 32 nM
10 | COc1cc(-c2cccc(OC(C)C)c2)ccc1-n1c(=O)ccc2cc(S(=O)(=O)Nc3ncco3)ccc21 [Example 826, 1-(3-methoxy-3′-(1-methylethoxy)-4-biphenylyl)-N-1,3-oxazol-2-yl-2-oxo-1,2-dihydro-6-quinolinesulfonamide] | 140 | –
11 | COc1cc(-c2ccc(C(F)(F)F)cc2)c(F)cc1-n1c(=O)ccc2cc(S(=O)(=O)Nc3ncccn3)ccc21 [Example 797, 1-(2-fluoro-5-methoxy-4′-(trifluoromethyl)-4-biphenylyl)-2-oxo-N-2-pyrimidinyl-1,2-dihydro-6-quinolinesulfonamide] | 43 | –
12 | COc1cc(-c2ccc(C)c(Cl)c2)c(F)cc1-n1c(=O)ccc2cc(S(=O)(=O)Nc3ccon3)ccc21 (atropisomer, axis not shown; (M)) [Example 529, (M)-1-(3′-chloro-2-fluoro-5-methoxy-4′-methyl-4-biphenylyl)-N-3-isoxazolyl-2-oxo-1,2-dihydro-6-quinolinesulfonamide] | – | IC50 (in-vitro PatchXpress (PX)): 3150 nM
